Source: patent publication US20110092486A1, “IH CHANNEL INHIBITORS FOR THE PROMOTION OF WAKEFULNESS” (priority 2006, published 2011)
Read-outs that look alike come from different tables or passages of the source. Marks after values point to notes of the source that are not given here.

How the values were obtained:
hHCN1 = target: T1, hHCN1 (Homo sapiens, UniProt O60741); assay: Determination of Ih channel inhibition, time-dependent current in HEK.hHCN1.2H10 cells; type: cell-based; conditions: holding potential −40 mV
T1 construct: expressed in transfected cells; host or cells: HEK cells, clone HEK.hHCN1.2H10
T1 sequence (O60741 1-890): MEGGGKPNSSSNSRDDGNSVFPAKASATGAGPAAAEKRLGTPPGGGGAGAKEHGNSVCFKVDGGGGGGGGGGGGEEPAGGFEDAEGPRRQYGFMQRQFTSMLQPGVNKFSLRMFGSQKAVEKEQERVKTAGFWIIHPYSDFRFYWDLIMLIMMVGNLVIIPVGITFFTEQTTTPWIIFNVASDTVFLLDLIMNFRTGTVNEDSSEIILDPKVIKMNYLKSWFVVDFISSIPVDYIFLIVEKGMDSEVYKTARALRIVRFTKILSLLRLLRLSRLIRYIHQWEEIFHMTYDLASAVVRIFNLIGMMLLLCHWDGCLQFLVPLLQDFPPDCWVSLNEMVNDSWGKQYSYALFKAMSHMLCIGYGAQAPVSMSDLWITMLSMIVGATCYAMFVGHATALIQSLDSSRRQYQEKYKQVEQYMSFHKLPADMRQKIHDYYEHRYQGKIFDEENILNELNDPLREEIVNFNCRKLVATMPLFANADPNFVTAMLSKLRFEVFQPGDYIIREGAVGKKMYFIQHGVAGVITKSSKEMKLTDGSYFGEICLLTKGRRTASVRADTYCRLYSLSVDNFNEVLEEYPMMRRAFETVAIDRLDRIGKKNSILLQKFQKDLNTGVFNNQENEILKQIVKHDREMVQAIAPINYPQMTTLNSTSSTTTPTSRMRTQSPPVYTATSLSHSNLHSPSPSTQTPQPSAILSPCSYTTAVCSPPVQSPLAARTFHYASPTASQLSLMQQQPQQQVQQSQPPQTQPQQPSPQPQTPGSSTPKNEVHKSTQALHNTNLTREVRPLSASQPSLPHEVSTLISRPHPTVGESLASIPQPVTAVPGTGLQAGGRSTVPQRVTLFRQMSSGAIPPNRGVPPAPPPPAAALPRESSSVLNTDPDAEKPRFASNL
Experimental: Methods: HEK.hHCN1.2H10 cells growing in culture were dissociated using CDS to lift the cells. They were suspended in high K external solution and used in the assay at a density of 2×10^6 cells.ml^−1. Two separate runs were performed with voltage steps to −80 mV and […] for 1 s; the holding potential in both cases was −40 mV. The amplitude of the time-dependent current (assumed to be all hHCN1) was measured as the difference between the current recorded immediately after the capacity transient on stepping to the test voltage and the current measured after it had reached a steady state amplitude (PeakAmp metric). The amount of inhibition was assessed by calculating the ratio of Post Compound PeakAmp/Pre Compound PeakAmp. Thus a ratio of 1 would indicate no inhibition and 0 would indicate 100% inhibition. Compounds were tested at concentrations between 0.152 μM and 333.3 μM, and a dose-response curve constructed. The IC50 value was obtained (the concentration causing half maximal inhibition) and the pIC50 calculated (the negative logarithm of the molar concentration causing half-maximal inhibition).

[1] = system: sleep-wake organisation in the rat; assay: Effect of Ih channel inhibition on sleep-wake organisation in rats (ACSO, EEG/EMG/movement); type: in vivo
Experimental: Methods: Sleep-wake organization was evaluated in instrumented male rats held on a 12:12 light-dark cycle. Classification of sleep-wake states was measured using an automated system (ACSO, Automatic Classification of Sleep Organization)^[i,ii] that records and processes EEG (cortical), EMG (neck muscle) and movement signals. Subjects were assigned to placebo, Org 34167 or ivabradine treatment groups and signals were recorded on two successive days. The first recording session provided a baseline recording following treatment with placebo only. This baseline day was used to extract a sleep classification algorithm for each individual subject. On the second day recording was started immediately after administration of placebo, Org 34167 (i.p.) or ivabradine (s.c.). Treatments were administered 2.5-3.0 h after lights-on. Data analysis and statistics: EEG, EMG and movement signals were used to classify every 2 second epoch into 6 different sleep stages using the algorithm derived for each individual subject from the baseline day recording. Six sleep-wake states were discriminated—Active waking (AW), Passive waking (PW), Light sleep (LS), Deep sleep (DS), Intermediate sleep (IS) and Rapid Eye Movement sleep (REM). Subsets of the six sleep-wake states were also combined to give Waking (PW and AW), Sleep (IS, REM, LS and DS) and NREM (LS and DS). For each treatment group, the median percentage of time spent in each sleep or waking state were calculated in 3 hour time intervals after drug injection. Significance was calculated by means of the two-sided rank sum test (Mann-Whitney test; P<0.025).

Ih channel = Ih channel inhibition, statement without method
[2] = 0.3 mg/kg i.p., 0-3 h, lights on
[3] = 0.3 mg/kg i.p., 3-6 h, lights on
[4] = 0.3 mg/kg i.p., 6-9 h, lights on
[5] = 0.3 mg/kg i.p., 9-12 h, lights off
[6] = 1 mg/kg i.p., 9-12 h, lights off
[7] = 5 mg/kg s.c., 9-12 h, lights off
[8] = 15 mg/kg s.c., 0-3 h, lights on
[9] = 15 mg/kg s.c., 3-6 h, lights on
[10] = 15 mg/kg s.c., 6-9 h, lights on
[11] = 15 mg/kg s.c., 9-12 h, lights off
[12] = 50 mg/kg s.c., 0-3 h, lights on
[13] = 50 mg/kg s.c., 3-6 h, lights on
[14] = 50 mg/kg s.c., 6-9 h, lights on
[15] = 50 mg/kg s.c., 9-12 h, lights off

Q: What does the source list for C=CC[C@H](N)c1ccccc1-c1noc2ccccc12.Cl [Org 34167, (S)-2-(1,2-benzisoxazol-3-yl)-α-2-propenylbenzenemethanamine hydrochloride]?
A: IC50 (hHCN1; voltage step to −80 mV for 1 s, read-out: IC50 μM −80 mV): 3.2 µM; IC50 (hHCN1; voltage step to −120 mV for 1 s, read-out: IC50 μM −120 mV): 8.6 µM; median percentage of time spent in NREM [1, 2]: 46.4* %; median percentage of time spent in Sleep [1, 2]: 54.1* %; median percentage of time spent in Waking [1, 2]: 45.9* %; median percentage of time spent in NREM [1, 3]: 63.5%; median percentage of time spent in Sleep [1, 3]: 80.4%; median percentage of time spent in Waking [1, 3]: 19.6%; median percentage of time spent in NREM [1, 4]: 63.8%; median percentage of time spent in Sleep [1, 4]: 77.9%; median percentage of time spent in Waking [1, 4]: 22.1%; median percentage of time spent in NREM [1, 5]: 40.9%; median percentage of time spent in Sleep [1, 5]: 47.3%; median percentage of time spent in Waking [1, 5]: 52.7%; median percentage of time spent in NREM ([1]; 1 mg/kg i.p., 0-3 h, lights on): 7.6* %; median percentage of time spent in Sleep ([1]; 1 mg/kg i.p., 0-3 h, lights on): 7.6* %; median percentage of time spent in Waking ([1]; 1 mg/kg i.p., 0-3 h, lights on): 92.4* %; median percentage of time spent in NREM ([1]; 1 mg/kg i.p., 3-6 h, lights on): 59.1* %; median percentage of time spent in Sleep ([1]; 1 mg/kg i.p., 3-6 h, lights on): 64.2* %; median percentage of time spent in Waking ([1]; 1 mg/kg i.p., 3-6 h, lights on): 35.8* %; median percentage of time spent in NREM ([1]; 1 mg/kg i.p., 6-9 h, lights on): 63.9* %; median percentage of time spent in Sleep ([1]; 1 mg/kg i.p., 6-9 h, lights on): 81.2%; median percentage of time spent in Waking ([1]; 1 mg/kg i.p., 6-9 h, lights on): 18.8%; median percentage of time spent in NREM [1, 6]: 42.1%; median percentage of time spent in Sleep [1, 6]: 51.8%; median percentage of time spent in Waking [1, 6]: 48.2%; effect on waking and sleep compared to placebo ([1]; Org 34167 i.p., first 3-6 hours of the session): dose dependently increased waking and decreased sleep

Q: What does the source list for COc1cc2c(cc1OC)CC(=O)N(CCCN(C)C[C@H]1Cc3cc(OC)c(OC)cc31)CC2.Cl [ivabradine, (+)-3-[3-[N-[4,5-dimethoxybenzocyclobutan-1-(S)-ylmethyl]-N-methylamino]propyl]-7,8-dimethoxy-2,3,4,5-tetrahydro-1H-3-benzazepin-2-one hydrochloride]?
A: median percentage of time spent in NREM ([1]; 5 mg/kg s.c., 0-3 h, lights on): 49.5%; median percentage of time spent in Sleep ([1]; 5 mg/kg s.c., 0-3 h, lights on): 58.2%; median percentage of time spent in Waking ([1]; 5 mg/kg s.c., 0-3 h, lights on): 41.8%; median percentage of time spent in NREM ([1]; 5 mg/kg s.c., 3-6 h, lights on): 68.9%; median percentage of time spent in Sleep ([1]; 5 mg/kg s.c., 3-6 h, lights on): 84.8%; median percentage of time spent in Waking ([1]; 5 mg/kg s.c., 3-6 h, lights on): 15.2%; median percentage of time spent in NREM ([1]; 5 mg/kg s.c., 6-9 h, lights on): 56.2%; median percentage of time spent in Sleep ([1]; 5 mg/kg s.c., 6-9 h, lights on): 72.9%; median percentage of time spent in Waking ([1]; 5 mg/kg s.c., 6-9 h, lights on): 27.1%; median percentage of time spent in NREM [1, 7]: 39.5%; median percentage of time spent in Sleep [1, 7]: 50.4%; median percentage of time spent in Waking [1, 7]: 49.6%; median percentage of time spent in NREM [1, 8]: 53.2%; median percentage of time spent in Sleep [1, 8]: 60.1* %; median percentage of time spent in Waking [1, 8]: 39.9* %; median percentage of time spent in NREM [1, 9]: 65.8%; median percentage of time spent in Sleep [1, 9]: 83.0%; median percentage of time spent in Waking [1, 9]: 17.0%; median percentage of time spent in NREM [1, 10]: 60.0%; median percentage of time spent in Sleep [1, 10]: 72.5%; median percentage of time spent in Waking [1, 10]: 27.5%; median percentage of time spent in NREM [1, 11]: 37.4%; median percentage of time spent in Sleep [1, 11]: 45.2%; median percentage of time spent in Waking [1, 11]: 54.8%; median percentage of time spent in NREM [1, 12]: 41.4%; median percentage of time spent in Sleep [1, 12]: 42.2* %; median percentage of time spent in Waking [1, 12]: 57.8* %; median percentage of time spent in NREM [1, 13]: 63.2%; median percentage of time spent in Sleep [1, 13]: 80.4%; median percentage of time spent in Waking [1, 13]: 19.6%; median percentage of time spent in NREM [1, 14]: 65.0%; median percentage of time spent in Sleep [1, 14]: 81.0%; median percentage of time spent in Waking [1, 14]: 19.0%; median percentage of time spent in NREM [1, 15]: 45.8* %; median percentage of time spent in Sleep [1, 15]: 57.9* %; median percentage of time spent in Waking [1, 15]: 42.1* %; effect on waking and sleep compared to placebo ([1]; ivabradine s.c., first 3 hours of the session): dose dependently increased waking and decreased sleep

Q: Which “Ih channel inhibitor or not” value (Ih channel) does the source give for NC(=O)C[S+]([O-])C(c1ccccc1)c1ccccc1 (centres unmarked) [modafanil] here?
A: Its value is “not to be an Ih channel inhibitor”.
